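The compound was tested at five concentrations on cells cultured in 96-well plates, with a 48-hour exposure period. The concentration for 50% growth inhibition is given as GI50. At the TGI there is no net growth.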
Experiments:
Experiment in all cases: NCI tumour cell line growth inhibition, 48 h
786-0 renal = test system: 786-0 renal
A498 renal = test system: A498 renal
A549 NSCLC = test system: A549 NSCLC
ACHN renal = test system: ACHN renal
BT-549 breast = test system: BT-549 breast
CAKI-1 renal = test system: CAKI-1 renal
CCRF-CEM leukemia = test system: CCRF-CEM leukemia
COLO 205 colon = test system: COLO 205 colon
DU-145 prostate = test system: DU-145 prostate
EKVX NSCLC = test system: EKVX NSCLC
HCC-2998 colon = test system: HCC-2998 colon
HCT-116 colon = test system: HCT-116 colon
HCT-15 colon = test system: HCT-15 colon
HL-60(TB) leukemia = test system: HL-60(TB) leukemia
HOP-62 NSCLC = test system: HOP-62 NSCLC
HOP-92 NSCLC = test system: HOP-92 NSCLC
HS 578T breast = test system: HS 578T breast
HT29 colon = test system: HT29 colon
IGROV1 ovarian = test system: IGROV1 ovarian
K-562 leukemia = test system: K-562 leukemia
KM12 colon = test system: KM12 colon
LOX IMVI melanoma = test system: LOX IMVI melanoma
M14 melanoma = test system: M14 melanoma
MALME-3M melanoma = test system: MALME-3M melanoma
MCF7 breast = test system: MCF7 breast
MDA-MB-231 breast = test system: MDA-MB-231 breast
MDA-MB-435 = test system: MDA-MB-435
MOLT-4 leukemia = test system: MOLT-4 leukemia
NCI-H226 lung = test system: NCI-H226 lung
NCI-H23 lung = test system: NCI-H23 lung
NCI-H460 lung = test system: NCI-H460 lung
NCI-H522 lung = test system: NCI-H522 lung
NCI/ADR-RES ovarian = test system: NCI/ADR-RES ovarian
OVCAR-3 ovarian = test system: OVCAR-3 ovarian
OVCAR-4 ovarian = test system: OVCAR-4 ovarian
OVCAR-5 ovarian = test system: OVCAR-5 ovarian
OVCAR-8 ovarian = test system: OVCAR-8 ovarian
PC-3 prostate = test system: PC-3 prostate
RPMI-8226 leukemia = test system: RPMI-8226 leukemia
RXF 393 renal = test system: RXF 393 renal
SF-268 CNS = test system: SF-268 CNS
SF-295 CNS = test system: SF-295 CNS
SF-539 CNS = test system: SF-539 CNS
SK-MEL-2 melanoma = test system: SK-MEL-2 melanoma
SK-MEL-28 melanoma = test system: SK-MEL-28 melanoma
SK-MEL-5 melanoma = test system: SK-MEL-5 melanoma
SK-OV-3 ovarian = test system: SK-OV-3 ovarian
SN12C renal = test system: SN12C renal
SNB-75 CNS = test system: SNB-75 CNS
SR leukemia = test system: SR leukemia
SW-620 colon = test system: SW-620 colon
T-47D breast = test system: T-47D breast
TK-10 renal = test system: TK-10 renal
U251 CNS = test system: U251 CNS
UACC-257 melanoma = test system: UACC-257 melanoma
UACC-62 melanoma = test system: UACC-62 melanoma
UO-31 renal = test system: UO-31 renal

How did the GI50 (786-0 renal) turn out when CCCC(C)c1cc(Cc2cc(Cl)cc(Cl)c2O)c(O)c(Cc2cc(Cl)cc(Cl)c2O)c1 (centres undefined) was run?
Its GI50 is 1640 nM.

What about the TGI (786-0 renal) of the same compound?
Its TGI is 6.78 µM.

And the GI50 (A498 renal)?
The GI50 was 243 nM.

What about the TGI (A498 renal) of the same compound?
Its TGI is 2000 nM.

And the GI50 (A549 NSCLC)?
Its GI50 is 2190 nM.

What about the TGI (A549 NSCLC) of the same compound?
The TGI was 12.5 µM.

What about the GI50 (ACHN renal) of the same compound?
Its GI50 is 1990 nM.

And the TGI (ACHN renal)?
The TGI was 10.9 µM.

What about the GI50 (BT-549 breast) of the same compound?
Its GI50 is 1330 nM.

And the TGI (BT-549 breast)?
Its TGI is 5.2 µM.

And the GI50 (CAKI-1 renal)?
Its GI50 is 1230 nM.

And the TGI (CAKI-1 renal)?
The TGI was 10.4 µM.

And the GI50 (CCRF-CEM leukemia)?
Its GI50 is 432 nM.

What about the TGI (CCRF-CEM leukemia) of the same compound?
The TGI was 3.74 µM.

And the GI50 (COLO 205 colon)?
The GI50 was 1610 nM.

What about the TGI (COLO 205 colon) of the same compound?
Its TGI is 5.7 µM.

What about the GI50 (DU-145 prostate) of the same compound?
Its GI50 is 3.89 µM.

And the TGI (DU-145 prostate)?
The TGI was 15.5 µM.

And the GI50 (EKVX NSCLC)?
The GI50 was 1960 nM.

What about the TGI (EKVX NSCLC) of the same compound?
The TGI was 11 µM.

And the GI50 (HCC-2998 colon)?
Its GI50 is 1420 nM.

What about the TGI (HCC-2998 colon) of the same compound?
Its TGI is 10.5 µM.

What about the GI50 (HCT-116 colon) of the same compound?
The GI50 was 384 nM.

What about the TGI (HCT-116 colon) of the same compound?
The TGI was 3.97 µM.

And the GI50 (HCT-15 colon)?
Its GI50 is 336 nM.

What about the TGI (HCT-15 colon) of the same compound?
Its TGI is 2440 nM.

What about the GI50 (HL-60(TB) leukemia) of the same compound?
The GI50 was 1100 nM.

What about the TGI (HL-60(TB) leukemia) of the same compound?
The TGI was 9.44 µM.

And the GI50 (HOP-62 NSCLC)?
The GI50 was 2700 nM.

What about the TGI (HOP-62 NSCLC) of the same compound?
The TGI was 12 µM.

What about the GI50 (HOP-92 NSCLC) of the same compound?
The GI50 was 128 nM.

And the TGI (HOP-92 NSCLC)?
The TGI was 496 nM.

What about the GI50 (HS 578T breast) of the same compound?
The GI50 was 836 nM.

And the TGI (HS 578T breast)?
The TGI was 8.32 µM.

What about the GI50 (HT29 colon) of the same compound?
Its GI50 is 2830 nM.

What about the TGI (HT29 colon) of the same compound?
Its TGI is 11.2 µM.

And the GI50 (IGROV1 ovarian)?
Its GI50 is 2730 nM.

And the TGI (IGROV1 ovarian)?
The TGI was 14.5 µM.

And the GI50 (K-562 leukemia)?
Its GI50 is 340 nM.

What about the TGI (K-562 leukemia) of the same compound?
Its TGI is 11.7 µM.

And the GI50 (KM12 colon)?
The GI50 was 2190 nM.

What about the TGI (KM12 colon) of the same compound?
The TGI was 11.4 µM.

And the GI50 (LOX IMVI melanoma)?
The GI50 was 2440 nM.

And the TGI (LOX IMVI melanoma)?
The TGI was 8.89 µM.

And the GI50 (M14 melanoma)?
The GI50 was 1630 nM.

What about the TGI (M14 melanoma) of the same compound?
Its TGI is 7.46 µM.

What about the GI50 (MALME-3M melanoma) of the same compound?
The GI50 was 1770 nM.

And the TGI (MALME-3M melanoma)?
Its TGI is 6.75 µM.

What about the GI50 (MCF7 breast) of the same compound?
The GI50 was 798 nM.

And the TGI (MCF7 breast)?
Its TGI is 10.2 µM.

What about the GI50 (MDA-MB-231 breast) of the same compound?
The GI50 was 1240 nM.

What about the TGI (MDA-MB-231 breast) of the same compound?
The TGI was 4.19 µM.

What about the GI50 (MDA-MB-435) of the same compound?
The GI50 was 2310 nM.

What about the TGI (MDA-MB-435) of the same compound?
Its TGI is 10.3 µM.

What about the GI50 (MOLT-4 leukemia) of the same compound?
The GI50 was 1530 nM.

What about the TGI (MOLT-4 leukemia) of the same compound?
The TGI was 4.83 µM.

What about the GI50 (NCI-H226 lung) of the same compound?
Its GI50 is 1940 nM.

What about the TGI (NCI-H226 lung) of the same compound?
Its TGI is 6.61 µM.

And the GI50 (NCI-H23 lung)?
The GI50 was 789 nM.

What about the TGI (NCI-H23 lung) of the same compound?
The TGI was 9.64 µM.

And the GI50 (NCI-H460 lung)?
The GI50 was 1020 nM.

And the TGI (NCI-H460 lung)?
The TGI was 9.34 µM.

And the GI50 (NCI-H522 lung)?
The GI50 was 400 nM.

And the TGI (NCI-H522 lung)?
The TGI was 6.6 µM.

What about the GI50 (NCI/ADR-RES ovarian) of the same compound?
Its GI50 is 1660 nM.

And the TGI (NCI/ADR-RES ovarian)?
The TGI was 11.2 µM.

And the GI50 (OVCAR-3 ovarian)?
Its GI50 is 1710 nM.

And the TGI (OVCAR-3 ovarian)?
Its TGI is 12.7 µM.

And the GI50 (OVCAR-4 ovarian)?
Its GI50 is 2020 nM.

And the TGI (OVCAR-4 ovarian)?
The TGI was 13.7 µM.

And the GI50 (OVCAR-5 ovarian)?
The GI50 was 4.05 µM.

What about the TGI (OVCAR-5 ovarian) of the same compound?
The TGI was 15 µM.

What about the GI50 (OVCAR-8 ovarian) of the same compound?
The GI50 was 737 nM.

And the TGI (OVCAR-8 ovarian)?
The TGI was 14.6 µM.

What about the GI50 (PC-3 prostate) of the same compound?
The GI50 was 430 nM.

And the TGI (PC-3 prostate)?
Its TGI is 4.52 µM.

And the GI50 (RPMI-8226 leukemia)?
The GI50 was 363 nM.

And the TGI (RPMI-8226 leukemia)?
The TGI was 2500 nM.

And the GI50 (RXF 393 renal)?
The GI50 was 1340 nM.

And the TGI (RXF 393 renal)?
Its TGI is 8.27 µM.

And the GI50 (SF-268 CNS)?
The GI50 was 1010 nM.

And the TGI (SF-268 CNS)?
The TGI was 20.7 µM.

What about the GI50 (SF-295 CNS) of the same compound?
Its GI50 is 1170 nM.

And the TGI (SF-295 CNS)?
The TGI was 3.56 µM.

What about the GI50 (SF-539 CNS) of the same compound?
Its GI50 is 1090 nM.

And the TGI (SF-539 CNS)?
The TGI was 7.28 µM.

What about the GI50 (SK-MEL-2 melanoma) of the same compound?
The GI50 was 1760 nM.

And the TGI (SK-MEL-2 melanoma)?
Its TGI is 4.77 µM.

And the GI50 (SK-MEL-28 melanoma)?
Its GI50 is 1190 nM.

And the TGI (SK-MEL-28 melanoma)?
The TGI was 10.1 µM.

What about the GI50 (SK-MEL-5 melanoma) of the same compound?
Its GI50 is 428 nM.

What about the TGI (SK-MEL-5 melanoma) of the same compound?
The TGI was 2210 nM.

What about the GI50 (SK-OV-3 ovarian) of the same compound?
Its GI50 is 3.36 µM.

What about the TGI (SK-OV-3 ovarian) of the same compound?
Its TGI is 9.23 µM.

What about the GI50 (SN12C renal) of the same compound?
Its GI50 is 415 nM.

And the TGI (SN12C renal)?
Its TGI is 10.4 µM.

What about the GI50 (SNB-75 CNS) of the same compound?
The GI50 was 1860 nM.

What about the TGI (SNB-75 CNS) of the same compound?
The TGI was 7.7 µM.

What about the GI50 (SR leukemia) of the same compound?
Its GI50 is 249 nM.

And the TGI (SR leukemia)?
Its TGI is 11 µM.

What about the GI50 (SW-620 colon) of the same compound?
Its GI50 is 1610 nM.

And the TGI (SW-620 colon)?
Its TGI is 12.7 µM.

What about the GI50 (T-47D breast) of the same compound?
Its GI50 is 809 nM.

What about the TGI (T-47D breast) of the same compound?
The TGI was 6.77 µM.

What about the GI50 (TK-10 renal) of the same compound?
The GI50 was 2300 nM.

And the TGI (TK-10 renal)?
Its TGI is 11.8 µM.

And the GI50 (U251 CNS)?
Its GI50 is 839 nM.

What about the TGI (U251 CNS) of the same compound?
The TGI was 11.1 µM.

What about the GI50 (UACC-257 melanoma) of the same compound?
Its GI50 is 1840 nM.

What about the TGI (UACC-257 melanoma) of the same compound?
The TGI was 6.1 µM.

And the GI50 (UACC-62 melanoma)?
Its GI50 is 629 nM.

What about the TGI (UACC-62 melanoma) of the same compound?
The TGI was 4.2 µM.

And the GI50 (UO-31 renal)?
Its GI50 is 2520 nM.

What about the TGI (UO-31 renal) of the same compound?
Its TGI is 10.2 µM.

— PubChem BioAssay (NCI)
